Data set [1] in a line: Aqueous solubility at pH 7.4.
The next data set addresses T1, Bile acid receptor (Homo sapiens, UniProt Q96RI1).
T1 sequence (Q96RI1 whole entry): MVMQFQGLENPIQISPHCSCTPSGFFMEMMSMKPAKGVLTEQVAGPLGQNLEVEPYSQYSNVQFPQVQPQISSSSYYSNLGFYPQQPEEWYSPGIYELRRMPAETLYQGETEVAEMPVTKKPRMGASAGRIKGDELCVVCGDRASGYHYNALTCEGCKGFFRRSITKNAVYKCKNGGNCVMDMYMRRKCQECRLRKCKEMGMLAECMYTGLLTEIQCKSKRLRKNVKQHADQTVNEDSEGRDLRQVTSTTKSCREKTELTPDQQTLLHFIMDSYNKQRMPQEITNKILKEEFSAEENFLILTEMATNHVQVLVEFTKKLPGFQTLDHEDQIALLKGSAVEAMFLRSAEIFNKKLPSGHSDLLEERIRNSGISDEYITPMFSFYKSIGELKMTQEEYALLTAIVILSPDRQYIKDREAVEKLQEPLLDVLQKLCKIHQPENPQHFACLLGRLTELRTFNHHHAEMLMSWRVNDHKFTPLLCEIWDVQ

The record followed here is ChEMBL document CHEMBL1155995, “Pyrrole[2,3-d]azepino compounds as agonists of the farnesoid X receptor (FXR)” (Bioorg Med Chem Lett, 2009).

Structures are written as SMILES. Converted amounts (≈) assume the structure as drawn.

Description for Bile acid receptor: Agonist activity at gal4-tagged human FXR-ligand binding domain expressed in human HEK293 cells by luciferase reporter gene assay

A word on the solubility: it is how much of the substance goes into solution per volume. A low value points to little dissolved substance. A word on the EC50: it is the midpoint of the concentration-response curve. In the case of `CC(C)OC(=O)C1=CN(C(=O)c2cccs2)CC(C)(C)c2cc(C#N)[nH]c21`, the solubility result in data set [1] (buffer) is listed as “Insoluble(BLD)”. Besides, the concentration for a half-maximal effect (EC50) on Bile acid receptor was found to be 16 nM.
As to `CC(C)OC(=O)C1=CN(C(=O)c2ccc(F)c(F)c2)CC(C)(C)c2c1[nH]c1ccccc21` [TUROFEXORATE ISOPROPYL], the solubility entry in data set [1] (buffer) is “Insoluble(BLD)”.
For `CC(C)OC(=O)C1CN(C(=O)c2ccc(Cl)cc2)CC(C)(C)c2cc(C#N)[nH]c21` (stereo not given), the solubility in data set [1] (aqueous) was found to be 5 µg/mL (≈ 12.1 µM).
Compound `CC(C)OC(=O)C1CN(C(=O)c2cccc(Cl)c2)CC(C)(C)c2cc(C#N)[nH]c21` (stereo not given) had a solubility in data set [1] (aqueous) of 17 µg/mL (≈ 41.1 µM).
As for `CC(C)OC(=O)C1=CN(C(=O)c2ccc(F)c(F)c2)CC(C)(C)c2cc(C#N)[nH]c21`, the solubility result in data set [1] (buffer) is “Insoluble(BLD)”. On Bile acid receptor, this compound registered an EC50 of 6.3 nM.
As to `CC(C)OC(=O)C1CN(C(=O)c2ccc(C#N)cc2)CC(C)(C)c2cc(C#N)[nH]c21` (stereo not given), in data set [1] (aqueous), the solubility was 21 µg/mL (≈ 51.9 µM).
With `CC(C)OC(=O)C1=CN(C(=O)C2CCCCC2)CC(C)(C)c2cc(C#N)[nH]c21`, the solubility result in data set [1] (buffer) is “Insoluble(BLD)”.
`CC(C)OC(=O)C1CN(C(=O)c2ccc(F)c(F)c2)CC(C)(C)c2cc(C#N)[nH]c21` (stereo not given) displayed a solubility in data set [1] (aqueous) of 31 µg/mL (≈ 74.6 µM).
Turning to `CC(C)OC(=O)C1CN(C(=O)C2CCCCC2)CC(C)(C)c2cc(C#N)[nH]c21` (stereo not given), the solubility in data set [1] (aqueous) was greater than 100 µg/mL.
For `CC(C)OC(=O)C1=CN(C(=O)c2ccc(F)cc2)CC(C)(C)c2cc(C#N)[nH]c21`, the solubility result in data set [1] (buffer) was “Insoluble(BLD)”.
For the compound `CC(C)OC(=O)C1CN(C(=O)c2ccc(F)cc2)CC(C)(C)c2cc(C#N)[nH]c21` (stereo not given), the solubility in data set [1] (aqueous) is greater than 100 µg/mL.
Take `CC(C)OC(=O)C1=CN(C(=O)c2ccc(C#N)cc2)CC(C)(C)c2cc(C#N)[nH]c21`: the solubility entry in data set [1] (buffer) is “Insoluble(BLD)”.
On to `CC(C)OC(=O)C1CN(C(=O)C2CCOCC2)CC(C)(C)c2cc(C#N)[nH]c21` (stereo not given), for which the solubility in data set [1] (aqueous) was greater than 100 µg/mL.
In data set [1] (aqueous), `CC(C)OC(=O)C1CN(C(=O)c2cccc(F)c2)CC(C)(C)c2cc(C#N)[nH]c21` (stereo not given) displayed a solubility greater than 100 µg/mL.
For the compound `CC(C)OC(=O)C1=CN(C(=O)c2cccc(C(F)(F)F)c2)CC(C)(C)c2cc(C#N)[nH]c21`, the solubility entry in data set [1] (buffer) is listed as “Insoluble(BLD)”. Besides, on Bile acid receptor, it took 8.5 nM to reach a half-maximal effect (EC50).
As to `CC(C)OC(=O)C1=CN(C(=O)c2cccc(F)c2)CC(C)(C)c2cc(C#N)[nH]c21`, the solubility result in data set [1] (buffer) is “Insoluble(BLD)”.
For the compound `CC(C)OC(=O)C1=CN(C(=O)c2cccc(Cl)c2)CC(C)(C)c2cc(C#N)[nH]c21`, the solubility entry in data set [1] (buffer) is listed as “Insoluble(BLD)”.
